≈ marks a conversion by molar mass, not a printed value. Read-outs that look alike come from different tables or passages of the source.
What was measured:
[1] = tested on: representative Actinobacteria (Bifidobacteriaceae and Coriobacteriaceae); experiment: MIC, isolated gut microbiota species: Actinobacteria; assay type: cell-based; conditions: inactive
Method: (§1) Strains plated onto blood agar (Hardy Diagnostics) with a 24-hour incubation at 37° C. in an anaerobic environment (Coy vinyl anaerobic chamber). After incubation, 3-5 well-isolated colonies were suspended into 5 mL of BHI broth (Criterion Media). The cultures were incubated in an anaerobic chamber for 24 hours to achieve a 0.5 McFarland Standard. […] Plates were allowed to dry in a sterile location. After drying, the plates were covered with foil to prevent any photo-damage to the hemin and placed in the anaerobic chamber for 1 hour to reduce the media. The broth culture was then spotted onto the plates and covered with foil. Plates were allowed to dry completely before inverting them for incubation for 48 hours. Plates were analyzed and MIC recorded.

Melissococcus plutonius = experiment: MIC determination, stool Firmicute isolates; assay type: cell-based; conditions: N=1
gut microbiome = experiment: Phase 1 healthy volunteer study, gut microbiome (metagenomics, qPCR); assay type: in vivo, human; conditions: for Proportion of isolated Firmicutes, Erysipelotrichaceae: baseline 2%; for Proportion of isolated Firmicutes, Other: baseline 4%; for Proportion of isolated Firmicutes, Lachnospiraceae: baseline 26%; for Proportion of isolated Firmicutes, Ruminococcaceae: baseline 68%
[2] = tested on: certain Firmicutes (Lachnospiraceae and Lactobacilluseae); experiment: MIC, isolated gut microbiota species: certain Firmicutes; assay type: cell-based; conditions: inactive
Method: as §1

Enterococcus mundtii = experiment: MIC determination, stool Firmicute isolates; assay type: cell-based; conditions: N=1
From the text: (§2) Fecal samples homogenized in reduced PBS (0.1 g stool/ml PBS) and serially diluted and plated directly onto YCFA7 agar supplemented with 0.002 g/ml each of glucose, maltose and cellobiose in large (13.5 cm diameter) petri dishes. Isolated colonies were identified by PCR amplification of the full-length 16S rRNA gene (using 7F (5′-[…]-3′) forward primer and 1510R (5′-[…]-3′) reverse primer followed by Sanger sequencing. Full-length 16S rRNA gene sequence reads were aligned using CLC Genomics (Qiagen) using the Ribosomal Database Project (RDP) as reference to classify reads to Operational Taxonomic Units (OTUs). The full-length 16S rRNA gene sequence of each species-level OTU was compared to the Ribosomal Database Project (RDP) reference database to assign taxonomic designations to the genus level and a BLAST search performed to identify any candidate novel species.
(§3) Strains plated onto blood agar (Hardy Diagnostics) with a 24-hour incubation at 37° C. in an anaerobic environment (Coy vinyl anaerobic chamber). After incubation, 3-5 well-isolated colonies were suspended into 5 mL of BHI broth (Criterion Media). The cultures were incubated in an anaerobic chamber for 24 hours to achieve a 0.5 McFarland Standard. Brucella agar with 5% hemin (5 ug/mL) (Sigma), vitamin K (10 ug/mL), and defibrinated sheep blood (Northeast Lab Services). The supplemented brucella agar was then utilized for two-fold serial dilution to create plates with IBZ concentration of 0.5 to 16 μg/mL plates. Plates were allowed to dry in a sterile location. After drying, the plates were covered with foil to prevent any photo-damage to the hemin and placed in the anaerobic chamber for 1 hour to reduce the media. The broth culture was then spotted onto the plates and covered with foil. Plates were allowed to dry completely before inverting them for incubation for 48 hours. Plates were analyzed and MIC recorded.

Enterococcus avium = experiment: MIC determination, stool Firmicute isolates; assay type: cell-based
From the text: as §2, §3

Blautia sp. = experiment: MIC determination, stool Firmicute isolates; assay type: cell-based; conditions: N=1
From the text: as §2, §3

[3] = healthy volunteers, 450 mg twice daily 10 days, day 3
[4] = healthy volunteers, 450 mg twice daily 10 days, day 5
[5] = healthy volunteers, 450 mg twice daily 10 days, day 8
[6] = healthy volunteers, 450 mg twice daily 10 days, day 10
[7] = healthy volunteers, 450 mg twice daily 10 days, day 12

Compound: O=c1[nH]c(NCc2ccc(Cl)c(Cl)c2)nc2ncn(CCN3CCOCC3)c12 [Ibezapolstat, 2-((3,4-dichlorobenzyl)amino)-7-(2-morpholinoethyl)-1,7-dihydro-6H-purin-6-one]
- MIC [1]: > 64 µg/mL
- MIC50 (Melissococcus plutonius): 6.25 µg/mL (≈ 14.8 µM)
- amount of C. coccoides (Clostridium cluster XIVa), qPCR (gut microbiome; healthy volunteers, 450 mg twice a day, over 12 days): increased
- Proportion of isolated Firmicutes, Streptococcaceae (gut microbiome; [3]): 27%
- Proportion of isolated Firmicutes, Veillonellaceae (gut microbiome; [3]): 3%
- Proportion of isolated Firmicutes, Erysipelotrichaceae (gut microbiome; [3]): 4%
- Proportion of isolated Firmicutes, Other (gut microbiome; [3]): 6%
- Proportion of isolated Firmicutes, Lachnospiraceae (gut microbiome; [3]): 23%
- Proportion of isolated Firmicutes, Ruminococcaceae (gut microbiome; [3]): 37%
- Proportion of isolated Firmicutes, Streptococcaceae (gut microbiome; [4]): 43%
- Proportion of isolated Firmicutes, Erysipelotrichaceae (gut microbiome; [4]): 7%
- Proportion of isolated Firmicutes, Other (gut microbiome; [4]): 9%
- Proportion of isolated Firmicutes, Lachnospiraceae (gut microbiome; [4]): 21%
- Proportion of isolated Firmicutes, Ruminococcaceae (gut microbiome; [4]): 20%
- Proportion of isolated Firmicutes, Lactobacilloae (gut microbiome; [5]): 12%
- Proportion of isolated Firmicutes, Streptococcaceae (gut microbiome; [5]): 49%
- Proportion of isolated Firmicutes, Erysipelotrichaceae (gut microbiome; [5]): 7%
- Proportion of isolated Firmicutes, Other (gut microbiome; [5]): 9%
- Proportion of isolated Firmicutes, Lachnospiraceae (gut microbiome; [5]): 16%
- Proportion of isolated Firmicutes, Ruminococcaceae (gut microbiome; [5]): 7%
- Proportion of isolated Firmicutes, Lactobacilloae (gut microbiome; [6]): 5%
- Proportion of isolated Firmicutes, Streptococcaceae (gut microbiome; [6]): 41%
- Proportion of isolated Firmicutes, Erysipelotrichaceae (gut microbiome; [6]): 18%
- Proportion of isolated Firmicutes, Other (gut microbiome; [6]): 9%
- Proportion of isolated Firmicutes, Lachnospiraceae (gut microbiome; [6]): 24%
- Proportion of isolated Firmicutes, Ruminococcaceae (gut microbiome; [6]): 3%
- Proportion of isolated Firmicutes, Lactobacilloae (gut microbiome; [7]): 6%
- Proportion of isolated Firmicutes, Streptococcaceae (gut microbiome; [7]): 14%
- Proportion of isolated Firmicutes, Erysipelotrichaceae (gut microbiome; [7]): 25%
- Proportion of isolated Firmicutes, Other (gut microbiome; [7]): 5%
- Proportion of isolated Firmicutes, Lachnospiraceae (gut microbiome; [7]): 47%
- Proportion of isolated Firmicutes, Ruminococcaceae (gut microbiome; [7]): 4%
- Actinobacteria abundance after starting treatment (gut microbiome; healthy volunteers, primarily Bifidobacteriales or Coriobacteriales, persisted for the entire dosing period): increased in abundance
- microbiome profile of treated subjects (gut microbiome; phase 1 healthy volunteer study, treatment over 10 days, shotgun metagenomic sequencing): larger proportion of Actinobacteria and Firmicute Phylum
- MIC [2]: > 64 µg/mL
- MIC50 (Enterococcus mundtii): 12.5 µg/mL (≈ 29.5 µM)
- MIC50 (Enterococcus avium; N=2): 12.5 µg/mL (≈ 29.5 µM)
- MIC (Enterococcus avium; N=2, read-out: MIC Max): 12.5 µg/mL (≈ 29.5 µM)
- MIC (Enterococcus avium; N=2, read-out: MIC Min): 12.5 µg/mL (≈ 29.5 µM)
- MIC50 (Blautia sp.): 12.5 µg/mL (≈ 29.5 µM)
